Among the data in patent US10538555B2, “Macrocyclic inhibitors of the PD-1/PD-L1 and CD80(B7-1)/PD-L1 protein/protein interactions” (BRISTOL-MYERS SQUIBB COMPANY, priority 2014, dated 2020) are IC50 values, retold here.

This test concerns the target T1, Human PD-L1/PD-1 (Homo sapiens, UniProt Q9NZQ7).
T1 construct: TVMV protease cleavage site (C); made in house; host or cells: HEK293T cells
The test can be described thus: HTRF Human PD-L1/PD-1 binding assay (PD-1-Ig/PD-L1-His). The note with it: PD-L1-His 10 nM, PD-1-Ig 20 nM; class symbol; read-out: HTRF Human PD-L1/PD-1 Binding Assay IC50 Range. Summed up: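 Step 1: compound with PD-L1-His (10 nM final), 15 min. Step 2: PD-1-Ig (20 nM final), 15 min. Step 3: Eu-cryptate anti-Ig (1 nM) plus APC anti-His (20 nM), 30 min equilibration. Signal taken as 665 nm/620 nm ratio.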

Where a SMILES comes first, the peptide text is derived from it. Bridges are numbered along the chain shown (N, C = ends). [ ]: non-standard residue; d: D form. ξ: configuration not given here. Trp(1-CH2COOH) = N[C@@H](Cc1cn(CC(=O)O)c2ccccc12)C(=O)O; Phe(3,4,5-F3) = N[C@@H](Cc1cc(F)c(F)c(F)c1)C(=O)O; Phe(3,4-F2) = N[C@@H](Cc1ccc(F)c(F)c1)C(=O)O; NMePhe(4-F) = CN[C@@H](Cc1ccc(F)cc1)C(=O)O; d(cisHyp) = O=C(O)[C@H]1C[C@@H](O)CN1; Bta = N[C@@H](Cc1csc2ccccc12)C(=O)O; Hyp = O=C(O)[C@@H]1C[C@@H](O)CN1; NMeF = CN[C@@H](Cc1ccccc1)C(=O)O; dHyp = O=C(O)[C@H]1C[C@H](O)CN1; NMeNle = CCCC[C@H](NC)C(=O)O; Pip = O=C(O)[C@@H]1CCCCN1; dPip = O=C(O)[C@H]1CCCCN1; hSer = N[C@@H](CCO)C(=O)O; NMeA = CN[C@@H](C)C(=O)O; Orn = NCCC[C@H](N)C(=O)O; Dab = NCC[C@H](N)C(=O)O; Dap = NC[C@H](N)C(=O)O; ξC = NC(CS)C(=O)O

T1 sequence (Q9NZQ7 with tags, fused parts or gaps): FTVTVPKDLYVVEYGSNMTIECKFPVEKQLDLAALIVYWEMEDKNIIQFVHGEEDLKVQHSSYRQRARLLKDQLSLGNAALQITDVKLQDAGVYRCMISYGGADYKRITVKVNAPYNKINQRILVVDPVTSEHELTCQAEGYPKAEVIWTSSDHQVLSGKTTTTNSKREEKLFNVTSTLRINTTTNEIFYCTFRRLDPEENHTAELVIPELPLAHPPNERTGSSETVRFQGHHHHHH

As for `CCCC[C@H]1C(=O)N2C[C@H](O)C[C@@H]2C(=O)N[C@@H](CC(=O)O)C(=O)N[C@@H](C(C)C)C(=O)N(C)[C@@H](Cc2ccccc2)C(=O)N[C@@H](CC(=O)O)C(=O)N2C[C@H](O)C[C@@H]2C(=O)N[C@@H](Cc2c[nH]c3ccccc23)C(=O)N[C@@H](Cc2ccc(O)cc2)C(=O)N[C@@H](CCC(=O)O)C(=O)N[C@H](C(=O)NCC(N)=O)CSCC(=O)N[C@@H](Cc2ccc(F)c(F)c2)C(=O)N(C)[C@@H](Cc2ccccc2)C(=O)N1C` [Example 9314] ({CH2CO}-[Phe(3,4-F2)][NMeF][NMeNle][d(cisHyp)]DV[NMeF]D[d(cisHyp)]WYECG-NH2; thioether N-13), the IC50 is 1 to 9.9 nM.

Regarding `CCCC[C@H]1C(=O)N2C[C@H](O)C[C@@H]2C(=O)N[C@@H](CC(=O)O)C(=O)N[C@@H](C(C)C)C(=O)N(C)[C@@H](Cc2ccccc2)C(=O)N[C@@H](CC(=O)O)C(=O)N2C[C@H](O)C[C@@H]2C(=O)N[C@@H](Cc2c[nH]c3ccccc23)C(=O)N[C@@H](Cc2ccc(O)cc2)C(=O)N[C@@H](CCCN)C(=O)N[C@H](C(=O)NCC(N)=O)CSCC(=O)N[C@@H](Cc2ccc(F)c(F)c2)C(=O)N(C)[C@@H](Cc2ccccc2)C(=O)N1C` [Example 9300] ({CH2CO}-[Phe(3,4-F2)][NMeF][NMeNle][d(cisHyp)]DV[NMeF]D[d(cisHyp)]WY[Orn]CG-NH2; thioether N-13), the IC50 was in the range of 1 to 9.9 nM.

For `CCCC[C@H]1C(=O)N(C)[C@@H](CCCC)C(=O)N[C@@H](CO)C(=O)N[C@H](C(=O)NCC(N)=O)CSCC(=O)N[C@@H](Cc2ccc(OC)cc2)C(=O)N(C)[C@@H](C)C(=O)N[C@@H](CC(N)=O)C(=O)N2CCC[C@H]2C(=O)N[C@@H](CO)C(=O)N[C@@H](CCC(N)=O)C(=O)N2C[C@H](O)C[C@H]2C(=O)N[C@@H](Cc2c[nH]c3ccccc23)C(=O)N[C@@H](CO)C(=O)N[C@@H](Cc2c[nH]c3ccccc23)C(=O)N1C` [Example 7138] ({CH2CO}-Y(Me)[NMeA]NPSQ[Hyp]WSW[NMeNle][NMeNle]SCG-NH2; thioether N-14), the IC50 fell in the range of 1 to 9.9 nM.

As to `CCCC[C@H]1C(=O)N(C)[C@@H](CCCC)C(=O)N[C@@H](CCCN)C(=O)NC(C(=O)NCC(N)=O)CSCC(=O)N[C@@H](Cc2ccc(O)cc2)C(=O)N(C)[C@@H](C)C(=O)N[C@@H](CC(N)=O)C(=O)N2CCC[C@H]2C(=O)N[C@@H](CC(N)=O)C(=O)N[C@@H](CC(C)C)C(=O)N2C[C@H](O)C[C@H]2C(=O)N[C@@H](Cc2c[nH]c3ccccc23)C(=O)N[C@@H](CO)C(=O)N[C@@H](Cc2c[nH]c3ccccc23)C(=O)N1C` (stereo partly drawn) [Example 9157] ({CH2CO}-Y[NMeA]NPNL[Hyp]WSW[NMeNle][NMeNle][Orn][ξC]G-NH2; thioether N-14), the IC50 lay within 1 to 9.9 nM.

In the case of `CCCC[C@H]1C(=O)N(C)[C@@H](CCCC)C(=O)N[C@@H](CN)C(=O)N[C@H](C(=O)NCC(N)=O)CSCC(=O)N[C@@H](Cc2ccc(O)cc2)C(=O)N(C)[C@@H](C)C(=O)N[C@@H](CC(=O)O)C(=O)N2CCC[C@H]2C(=O)N[C@@H](CN)C(=O)N[C@@H](CCC(=O)O)C(=O)N2C[C@H](O)C[C@H]2C(=O)N[C@@H](Cc2c[nH]c3ccccc23)C(=O)N[C@@H](CCN)C(=O)N[C@@H](Cc2cn(CC(=O)O)c3ccccc23)C(=O)N1C` [Example 5176] ({CH2CO}-Y[NMeA]DP[Dap]E[Hyp]W[Dab][Trp(1-CH2COOH)][NMeNle][NMeNle][Dap]CG-NH2; thioether N-14), the IC50 is 1 to 9.9 nM.

With `CCCC[C@H]1C(=O)N(C)[C@@H](CCCC)C(=O)N[C@@H](CCC(=O)O)C(=O)N[C@H](C(=O)NCC(N)=O)CSCC(=O)N[C@@H](Cc2ccc(O)cc2)C(=O)N2CCCC[C@H]2C(=O)N[C@@H](CC(N)=O)C(=O)N2CCC[C@H]2C(=O)N[C@@H](CO)C(=O)N[C@@H](CC(C)C)C(=O)N2C[C@H](O)C[C@H]2C(=O)N[C@@H](Cc2c[nH]c3ccccc23)C(=O)N[C@@H](CCN)C(=O)N[C@@H](Cc2cn(CC(=O)O)c3ccccc23)C(=O)N1C` [Example 1305] ({CH2CO}-Y[Pip]NPSL[Hyp]W[Dab][Trp(1-CH2COOH)][NMeNle][NMeNle]ECG-NH2; thioether N-14), the IC50 is 1 to 9.9 nM.

For the compound `CCCC[C@H]1C(=O)N2C[C@@H](O)C[C@@H]2C(=O)N[C@@H](CC(=O)O)C(=O)N[C@@H](C(C)C)C(=O)N(C)[C@@H](Cc2ccccc2)C(=O)N[C@@H](CCC(=O)O)C(=O)N2CCCC[C@@H]2C(=O)N[C@@H](Cc2c[nH]c3ccccc23)C(=O)N[C@@H](Cc2ccc(O)cc2)C(=O)N[C@@H](CC(C)C)C(=O)N[C@H](C(=O)NCC(N)=O)CSCC(=O)N[C@@H](Cc2cc(F)c(F)c(F)c2)C(=O)N(C)[C@@H](Cc2ccc(F)cc2)C(=O)N1C` [Example 10556] ({CH2CO}-[Phe(3,4,5-F3)][NMePhe(4-F)][NMeNle][dHyp]DV[NMeF]E[dPip]WYLCG-NH2; thioether N-13), the IC50 fell in the range of 1 to 9.9 nM.

For `CCCC[C@H]1C(=O)N(C)[C@@H](CCCC)C(=O)N[C@@H](CCC(=O)O)C(=O)N[C@H](C(=O)NCC(N)=O)CSCC(=O)N[C@@H](Cc2ccc(O)cc2)C(=O)N(C)[C@@H](C)C(=O)N[C@@H](CC(=O)O)C(=O)N2CCC[C@H]2C(=O)N[C@@H](CO)C(=O)N[C@@H](CCC(=O)O)C(=O)N2C[C@H](O)C[C@H]2C(=O)N[C@@H](Cc2c[nH]c3ccccc23)C(=O)N[C@@H](CO)C(=O)N[C@@H](Cc2c[nH]c3ccccc23)C(=O)N1C` [Example 5233] ({CH2CO}-Y[NMeA]DPSE[Hyp]WSW[NMeNle][NMeNle]ECG-NH2; thioether N-14), the IC50 lay within 1 to 9.9 nM.

Regarding `CCCC[C@H]1C(=O)N(C)[C@@H](CCCC)C(=O)N[C@@H](CCC(=O)O)C(=O)N[C@H](C(=O)NCC(N)=O)CSCC(=O)N[C@@H](Cc2ccc(O)cc2)C(=O)N2CCCC[C@@H]2C(=O)N[C@@H](CC(N)=O)C(=O)N2CCC[C@H]2C(=O)N[C@@H](CN)C(=O)N[C@@H](CCC(=O)O)C(=O)N2C[C@H](O)C[C@H]2C(=O)N[C@@H](Cc2c[nH]c3ccccc23)C(=O)N[C@@H](CO)C(=O)N[C@@H](Cc2cn(CC(=O)O)c3ccccc23)C(=O)N1C` [Example 1290] ({CH2CO}-Y[dPip]NP[Dap]E[Hyp]WS[Trp(1-CH2COOH)][NMeNle][NMeNle]ECG-NH2; thioether N-14), the IC50 lay within 10 to 99.9 nM.

Take `CCCC[C@H]1C(=O)N(C)[C@@H](CCCC)C(=O)N[C@@H](CCCNC(=N)N)C(=O)NC(C(=O)NCC(N)=O)CSCC(=O)N[C@@H](Cc2ccc(O)cc2)C(=O)N(C)[C@@H](C)C(=O)N[C@@H](CC(N)=O)C(=O)N2CCC[C@H]2C(=O)N[C@@H](CO)C(=O)N[C@@H](CCO)C(=O)N2C[C@H](O)C[C@H]2C(=O)N[C@@H](Cc2c[nH]c3ccccc23)C(=O)N[C@@H](CO)C(=O)N[C@@H](Cc2csc3ccccc23)C(=O)N1C` (stereo partly drawn) [Example 10035] ({CH2CO}-Y[NMeA]NPS[hSer][Hyp]WS[Bta][NMeNle][NMeNle]R[ξC]G-NH2; thioether N-14): the IC50 lay in the range of 1 to 9.9 nM.

On to `CCCC[C@H]1C(=O)N2C[C@@H](O)C[C@@H]2C(=O)N[C@@H](CC(=O)O)C(=O)N[C@@H](C(C)C)C(=O)N(C)[C@@H](Cc2ccccc2)C(=O)N[C@@H](CCC(=O)O)C(=O)N2CCCC[C@@H]2C(=O)N[C@@H](Cc2c[nH]c3ccccc23)C(=O)N[C@@H](Cc2ccc(O)cc2)C(=O)N[C@@H](CO)C(=O)N[C@H](C(=O)NCC(N)=O)CSCC(=O)N[C@@H](Cc2cc(F)c(F)c(F)c2)C(=O)N(C)[C@@H](Cc2ccc(F)cc2)C(=O)N1C` [Example 10557] ({CH2CO}-[Phe(3,4,5-F3)][NMePhe(4-F)][NMeNle][dHyp]DV[NMeF]E[dPip]WYSCG-NH2; thioether N-13), for which the IC50 is 1 to 9.9 nM.

Turning to `CCCC[C@H]1C(=O)N(C)[C@@H](CCCC)C(=O)N[C@@H](CC(C)C)C(=O)N[C@H](C(=O)NCC(N)=O)CSCC(=O)N[C@@H](Cc2ccc(O)cc2)C(=O)N(C)[C@@H](C)C(=O)N[C@@H](CC(N)=O)C(=O)N2CCC[C@H]2C(=O)NCC(=O)N[C@@H](CCC(N)=O)C(=O)N2C[C@H](O)C[C@H]2C(=O)N[C@@H](Cc2c[nH]c3ccccc23)C(=O)NCC(=O)N[C@@H](Cc2c[nH]c3ccccc23)C(=O)N1C` [Example 5183] ({CH2CO}-Y[NMeA]NPGQ[Hyp]WGW[NMeNle][NMeNle]LCG-NH2; thioether N-14), the IC50 fell in the range of 10 to 99.9 nM.

`CCCC[C@H]1C(=O)N(C)[C@@H](C)C(=O)N[C@@H](CCCNC(=N)N)C(=O)NC(C(=O)N[C@@H](CO)C(N)=O)CSCC(=O)N[C@@H](Cc2ccc(O)cc2)C(=O)N(C)[C@@H](C)C(=O)N[C@@H](CC(N)=O)C(=O)N2CCC[C@H]2C(=O)N[C@@H](CO)C(=O)N[C@H](CC(C)C)C(=O)N2C[C@H](O)C[C@H]2C(=O)N[C@@H](Cc2c[nH]c3ccccc23)C(=O)N[C@@H](CO)C(=O)N[C@@H](Cc2c[nH]c3ccccc23)C(=O)N1C` (stereo partly drawn) [Example 9123] ({CH2CO}-Y[NMeA]NPS[dL][Hyp]WSW[NMeNle][NMeA]R[ξC]S-NH2; thioether N-14): the IC50 is 1 to 9.9 nM.

For `CCCC[C@H]1C(=O)N2CCC[C@@H]2C(=O)N[C@@H](CC(=O)O)C(=O)N[C@@H](C(C)C)C(=O)N(C)[C@@H](Cc2ccccc2)C(=O)N[C@@H](CCC(=O)O)C(=O)N2C[C@@H](O)C[C@@H]2C(=O)N[C@@H](Cc2c[nH]c3ccccc23)C(=O)N[C@@H](Cc2ccc(O)cc2)C(=O)N[C@@H](CCCN)C(=O)N[C@H](C(=O)NCC(N)=O)CSCC(=O)N[C@@H](Cc2cc(F)c(F)c(F)c2)C(=O)N(C)[C@@H](Cc2ccccc2)C(=O)N1C` [Example 9286] ({CH2CO}-[Phe(3,4,5-F3)][NMeF][NMeNle][dP]DV[NMeF]E[dHyp]WY[Orn]CG-NH2; thioether N-13), the IC50 fell in the range of 1 to 9.9 nM.

As to `CCCC[C@H]1C(=O)N2C[C@H](O)C[C@@H]2C(=O)N[C@@H](CC(=O)O)C(=O)N[C@@H](C(C)C)C(=O)N(C)[C@@H](Cc2ccccc2)C(=O)N[C@@H](CCC(=O)O)C(=O)N2C[C@H](O)C[C@@H]2C(=O)N[C@@H](Cc2c[nH]c3ccccc23)C(=O)N[C@@H](Cc2ccc(O)cc2)C(=O)N[C@@H](CCC(=O)O)C(=O)N[C@H](C(=O)NCC(N)=O)CSCC(=O)N[C@@H](Cc2ccc(F)c(F)c2)C(=O)N(C)[C@@H](Cc2ccccc2)C(=O)N1C` [Example 9312] ({CH2CO}-[Phe(3,4-F2)][NMeF][NMeNle][d(cisHyp)]DV[NMeF]E[d(cisHyp)]WYECG-NH2; thioether N-13), the IC50 lay within 10 to 99.9 nM.
